# Assay results reported in PubChem BioAssay (NCI).
# Values joined by “and” are separate entries in the source; they are usually repeats but may differ in a detail not shown here. Equal entries are not always repeated.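 The compound was tested at five concentrations on cells cultured in 96-well plates, with a 48-hour exposure period. GI50: concentration for 50% inhibition of growth. Definition used: TGI = concentration required for complete inhibition of growth.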
# Key:
# Assay in all cases: NCI tumour cell line growth inhibition, 48 h
# [1] = system: DU-145 prostate
# [2] = system: RPMI-8226 leukemia
# [3] = system: HOP-92 NSCLC
# [4] = system: SNB-19 CNS
# [5] = system: SK-MEL-28 melanoma
# [6] = system: SK-OV-3 ovarian
# [7] = system: UO-31 renal
# [8] = system: U251 CNS
# [9] = system: MALME-3M melanoma
# [10] = system: PC-3 prostate
# [11] = system: CCRF-CEM leukemia
# [12] = system: K-562 leukemia
# [13] = system: SF-539 CNS
# [14] = system: SF-268 CNS
# [15] = system: LOX IMVI melanoma
# [16] = system: OVCAR-3 ovarian
# [17] = system: 786-0 renal
# [18] = system: HCT-15 colon
# [19] = system: NCI-H23 lung
# [20] = system: RXF 393 renal
# [21] = system: SK-MEL-2 melanoma
# [22] = system: MDA-MB-435
# [23] = system: NCI-H522 lung
# [24] = system: HCC-2998 colon
# [25] = system: OVCAR-5 ovarian
# [26] = system: NCI-H226 lung
# [27] = system: HT29 colon
# [28] = system: MDA-N
# [29] = system: UACC-62 melanoma
# [30] = system: COLO 205 colon
# [31] = system: MCF7 breast
# [32] = system: MOLT-4 leukemia
# [33] = system: NCI-H460 lung
# [34] = system: EKVX NSCLC
# [35] = system: OVCAR-4 ovarian
# [36] = system: SW-620 colon
# [37] = system: TK-10 renal
# [38] = system: SF-295 CNS
# [39] = system: IGROV1 ovarian
# [40] = system: MDA-MB-231 breast
# [41] = system: SN12C renal
# [42] = system: ACHN renal
# [43] = system: NCI/ADR-RES ovarian
# [44] = system: OVCAR-8 ovarian
# [45] = system: SNB-75 CNS
# [46] = system: HOP-62 NSCLC
# [47] = system: HL-60(TB) leukemia
# [48] = system: M14 melanoma
smiles,measurement,setting,value
CCOCC(=O)N[C@H]1CCc2cc(OC(=O)COCC)c(OC)c(OC)c2-c2ccc(SC)c(=O)cc21,GI50,[1],31.5 nM
same,TGI,[2],> 100000 nM
same,TGI,[3],80 nM
same,GI50,[4],28.3 nM
same,TGI,[4],> 100000 nM
same,GI50,[5],> 100000 nM
same,TGI,[5],> 100000 nM
same,GI50,[6],55.8 nM
same,GI50,[7],680 nM
same,TGI,[7],> 100000 nM
same,GI50,[8],15.4 nM
same,TGI,[9],> 100000 nM
same,GI50,[10],16.4 nM
same,GI50,[11],12.7 nM
same,TGI,[12],69.1 nM
same,GI50,[13],12.6 nM
same,TGI,[13],61 nM and 55.4 nM
same,GI50,[14],43.1 nM
same,TGI,[15],> 100000 nM
same,TGI,[16],16.6 nM
same,GI50,[17],56.8 nM
same,TGI,[17],> 100000 nM
same,TGI,[18],2850 nM
same,GI50,[19],33.7 nM
same,TGI,[20],> 100000 nM
same,GI50,[21],> 100000 nM
same,TGI,[22],4.12 nM
same,GI50,[23],27.9 nM
same,TGI,[23],38.9 nM and 107 nM
same,GI50,[24],21.1 nM
same,TGI,[24],54.9 nM and 86.6 nM
same,GI50,[25],54.9 nM
same,TGI,[25],> 100000 nM
same,GI50,[26],26.4 nM
same,TGI,[26],91.7 nM and 89.3 nM
same,TGI,[27],> 100000 nM
same,TGI,[28],6.11 nM
same,TGI,[29],> 100000 nM
same,TGI,[30],54 nM
same,TGI,[31],> 100000 nM
same,GI50,[32],34 nM
same,TGI,[32],> 100000 nM
same,GI50,[33],39.5 nM
same,GI50,[34],32100 nM
same,TGI,[34],> 100000 nM
same,TGI,[35],> 100000 nM
same,TGI,[36],> 100000 nM
same,GI50,[37],14900 nM
same,TGI,[37],> 100000 nM
same,GI50,[38],19.8 nM
same,GI50,[39],38.2 nM
same,TGI,[39],> 100000 nM
same,GI50,[40],36 nM
same,GI50,[41],55.4 nM
same,TGI,[41],> 100000 nM
same,GI50,[42],83.1 nM
same,TGI,[42],> 100000 nM
same,TGI,[43],5490 nM
same,GI50,[44],36.5 nM
same,TGI,[45],> 100000 nM
same,TGI,[46],> 100000 nM
same,TGI,[47],31.3 nM and 32.6 nM
same,GI50,[48],13.4 nM
same,TGI,[48],76.2 nM
